The values that follow are results of earlier work, collected in patent US6514536B2, “Drug preparations for treating sexual dysfunction” (L.A.M. Pharmaceutical Corporation, priority 1998, dated 2003).

Structures are written as SMILES.

The subject of data set [1] is erection. The note with it: men who failed prior intracavernous therapy with papaverine and phentolamine.
Data set [2] concerns blood pressure. Conditions: intravenous doses of 1 to 10 micrograms per kilogram of body weight.
In data set [3] the test system is penile blood flow. The note with it: duplex sonography.
Data set [4] concerns isolated cavernosal artery segments. Conditions: segments pre-contracted with noreginephrine or prostaglandin E2α.
Data set [5] concerns isolated corpus cavernosum and corpus spongiosum preparations. Conditions: in vitro.
The conditions of data set [6]: most abundant metabolite in plasma.

On to `CCCCC[C@H](O)/C=C/[C@H]1[C@H](O)CC(=O)[C@@H]1CCCCCCC(=O)O` [PGE1, prostaglandin E1], for which the “share of men achieving adequate erections” value in data set [1] is reported as “two-thirds”. For the same compound, the “effect on blood pressure” value in data set [2] is reported as “lower blood pressure”. In addition, in data set [3], the “increase in penile blood flow compared with papaverine” value is recorded as “at least as effective as papaverine”. The vasodilation result in data set [4] is on record as “vasodilation has been demonstrated”. Moreover, the smooth muscle relaxation result in data set [5] is on record as “dose-dependent smooth muscle relaxation”.

As for `CCCCCC(=O)CC[C@H]1[C@H](O)CC(=O)[C@@H]1CCCCCCC(=O)O` [DKH-PGE1, 13,14-dihydro,15-keto PGE1], the biological activity result in data set [6] is “biologically inactive”.
